Patent publication US7816361B2, “Immuno inhibitory pyrazolone compounds” (Medigene Limited, priority 2003, dated 2010)
Where two headings read alike, the source gives them in different places.

How the values were obtained:
CD80-CD28 interaction = biological target: T1, CD80-CD28 interaction (Homo sapiens, UniProt P33681); experiment: Homogenous Time Resolved Fluorescence (HTRF) assay, cell free; assay type: binding; conditions: inhibition of CD80-CD28 interaction; concentration series 100 μM-1.7 nM; 4 hours at room temperature; read-out: Activity Rating (EC50) in the HTRF assay
T1 sequence (P33681 35-242 limits assumed): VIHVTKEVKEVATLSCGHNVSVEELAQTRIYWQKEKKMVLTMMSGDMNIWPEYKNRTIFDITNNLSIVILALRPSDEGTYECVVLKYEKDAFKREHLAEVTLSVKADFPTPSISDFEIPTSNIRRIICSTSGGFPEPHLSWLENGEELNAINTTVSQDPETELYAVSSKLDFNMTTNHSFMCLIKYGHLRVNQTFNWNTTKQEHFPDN
Procedure: Homogenous Time Resolved Fluorescence Assay
The examples described above were tested in a cell free Homogenous Time Resolved Fluorescence (HTRF) assay to determine their activity as inhibitors of the CD80-CD28 interaction.
In the assay, europium and allophycocyanin (APC) are associated with CD28 and CD80 indirectly (through antibody linkers) to form a complex, which brings the europium and APC into close proximity to generate a signal. The complex comprises the following six proteins: fluorescent label 1, linker antibody 1, CD28 fusion protein, CD80 fusion protein, linker antibody 2, and fluorescent label 2. The table below describes these reagents in greater detail.
On formation of the complex, europium and APC are brought into proximity and a signal is generated.
Non-specific interaction was measured by substituting a mouse Fab fragment (C215) for the CD80 mouse Fab fragment fusion protein (1.9 μg/ml). The assay was carried out in black 384 well plates in a final volume of 30 μl. Assay buffer: 50 mM Tris-HCl, 150 mM NaCl pH7.8, containing 0.1% BSA (w/v) added just prior to use.
Compounds were added to the above reagents in a concentration series ranging between 100 μM-1.7 nM. The reaction was incubated for 4 hours at room temperature. Dual measurements were made using a Wallac Victor 1420 Multilabel Counter. First measurement: excitation 340 nm, emission 665 nm, delay 50 μs, window time 200 μs. second measurement: excitation 340 nm, emission 615 nm, delay 50 μs, window time 200 μs. Counts were automatically corrected for fluorescence crossover, quenching and background. The EC50 activities of compounds tested are recorded as: EC50: *=>10 μM, **=1-10 μM, ***=<1 μM.

[1] = biological target: T2, Biotinylated human CD80 (hCD80-BT) (Homo sapiens, UniProt P33681); experiment: Biacore biomolecular interaction analysis (BIAcore S51); assay type: binding; conditions: BIAcore S51, immobilised hCD80-BT
T2 construct: biotin (biotinylation)
T2 sequence (P33681 35-242 limits assumed): T1 sequence (P33681 35-242 limits assumed)
From the text: Assay Protocols The Use of Biacore Biomolecular Interaction Analysis
Biotinylated human CD80 (hCD80-BT) is a recombinant soluble form of a membrane bound receptor molecule (CD80) which binds to CD28 to initiate T cell activation. The interaction between CD80 and CD28 has been extensively investigated (Collins et al., 2002). Biotinlyated human HLA-A2-tax is the recombinant soluble form of a membrane bound receptor molecule that has been used in this example as a control protein, and is not expected to interact with the compounds.
The BIAcore S51™ system was used for screening the compounds of Examples 1-4 above. A series S sensor chip CM5 was docked onto the BIAcore S51™. Streptavidin was coupled to the carboxymethyl surface using standard amine coupling. The chip surface was activated with 0.2M EDC/0.05M NHS, followed by binding of streptavidin (0.25 mg/ml in 10 mM sodium acetate pH 5.0) and saturation of unoccupied sites with […].
The BIAcore S51 sensor chip has two separate sensor spots for immobilisation of proteins. hCD80-BT was immobilised on the streptavidin-coated surface of one sensor spot until a response of approximately 3000 RU was observed. A protein to control for non-specific binding of the compound was immobilised on a second sensor spot. The control protein used for these experiments was a biotinylated, soluble form of the human HLA protein.
Dilution series of compounds (1000 nM-0.05 nM) were prepared in running buffer (10 mM, pH 7.4, 150 mM NaCl, 0.005% P20; 5% DMSO).
BIAcore S51™ was run at a flow rate of 30 μl/min using running buffer. Compounds and DMSO standard solutions for correction of data for solvent effects were injected. Data were recorded automatically and were analysed using BIAcore S51 Evaluation software.

[2] = tested on: IL-2 production by human Jurkat T cells (with Raji cells, anti-CD3); experiment: Inhibition of production of interleukin-2 (IL-2) by human Jurkat T cells; assay type: cell-based; conditions: 5 hours
Procedure: Inhibition of Production of Interleukin-2 (IL-2) by Human Jurkat T Cells.
Human Raji cells were dispensed at a concentration of 2×10^5 cells per well in RPMI-1640 medium supplemented with 10% fetal calf serum, 1% penicillin/streptomycin, 1% glutamine (RPMI medium) in a 96-well round bottom microtitre plate. Compounds under investigation (dissolved in 100% DMSO) were diluted to eight-fold the desired final concentration in RPMI medium and added to the required final concentration for a total volume of 200 μl per well. After 20 minutes incubation at 37° C., Jurkat T cells were added at a concentration of 2×10^5 cells per well. Monoclonal antibody to CD3 (UCHT1, R&D Systems) was added to the cultures at a final concentration of 1 μg per ml, and where indicated, monoclonal antibody to CD28 (CD28.2, BD-Pharmingen) was also added at a concentration of 2.5 μg per ml. Cells were cultured at 37° C. for 5 hours, after which the plates were centrifuged and the supernatants harvested for IL-2 ELISA assay using the IL-2 Eli-pair kit (DIACLONE Research, Besancon, France) according to the manufacturers instructions.

[3] = biological target: T2, Biotinylated human CD80 (hCD80-BT); conditions: endogenous protein ligand CD28, cited from earlier work

| Compound | EC50 (CD80-CD28 interaction) | other results |
| --- | --- | --- |
| CN1C(C)(C)CC(NC(=O)c2ccc(-n3[nH]c(-c4ccno4)cc3=O)cc2)CC1(C)C [Example 2, 4-(3-Isoxazol-5-yl-5-oxo-2,5-dihydro-pyrazol-1-yl)-N-(1,2,2,6,6-pentamethyl-piperidin-4-yl)-benzamide] | > 10 µM | – |
| Cc1c(-c2ccco2)[nH]n(-c2ccc(C(=O)NC3CC(C)(C)N(C)C(C)(C)C3)cc2)c1=O [Example 3, 4-(3-Furan-2-yl-4-methyl-5-oxo-2,5-dihydro-pyrazol-1-yl)-N-(1,2,2,6,6-pentamethyl-piperidin-4-yl)-benzamide] | > 10 µM | – |
| CN(C)CCCNC(=O)c1ccc(-n2[nH]c(-c3ccccc3)cc2=O)cc1 [Example 5] | 1 to 10 µM | – |
| O=C(NCCN1CCN(Cc2ccccc2)CC1)c1ccc(-n2[nH]c(-c3ccccc3)cc2=O)cc1 [Example 6] | > 10 µM | – |
| CN1C(C)(C)CC(NC(=O)c2ccc(-n3[nH]c(-c4ccccc4)cc3=O)cc2)CC1(C)C [Example 7] | 1 to 10 µM | Kd [1]: < 0.1 µM; off-rate on CD80 [1]: 2×10^−2 |
| O=C(NCCCCN1CCCC1)c1ccc(-n2[nH]c(-c3ccccc3)cc2=O)cc1 [Example 8] | < 1 µM | – |
| O=C(NCCCNC1CCCCC1)c1ccc(-n2[nH]c(-c3ccccc3)cc2=O)cc1 [Example 9] | 1 to 10 µM | – |
| CN(C)CCCNC(=O)c1ccc(-n2[nH]c(-c3ccccn3)cc2=O)cc1 [Example 10] | < 1 µM | – |
| CN(C)CCCNC(=O)c1ccc(-n2[nH]c(-c3ccco3)cc2=O)cc1 [Example 11] | < 1 µM | Kd [1]: < 0.1 µM; off-rate on CD80 [1]: 2×10^−2 |
| CN(C)CCCNC(=O)c1ccc(-n2[nH]c(-c3cccnc3)cc2=O)cc1 [Example 12] | 1 to 10 µM | – |
| O=C(NCCCNC1CCCCC1)c1ccc(-n2[nH]c(-c3ccccn3)cc2=O)cc1 [Example 13] | 1 to 10 µM | – |
| O=C(NCCCNC1CCCCC1)c1ccc(-n2[nH]c(-c3ccco3)cc2=O)cc1 [Example 14] | < 1 µM | – |
| O=C(NCCCNC1CCCCC1)c1ccc(-n2[nH]c(-c3cccnc3)cc2=O)cc1 [Example 15] | 1 to 10 µM | – |
| CN1C(C)(C)CC(NC(=O)c2ccc(-n3[nH]c(-c4ccccn4)cc3=O)cc2)CC1(C)C [Example 16] | < 1 µM | – |
| CN(C)CCCNC(=O)c1ccc(-n2[nH]c(-c3ccoc3)cc2=O)cc1 [Example 17] | 1 to 10 µM | – |
| O=C(NCCCNC1CCCCC1)c1ccc(-n2[nH]c(-c3ccoc3)cc2=O)cc1 [Example 18] | < 1 µM | – |
| CN1C(C)(C)CC(NC(=O)c2ccc(-n3[nH]c(-c4ccco4)cc3=O)cc2)CC1(C)C [Example 19] | < 1 µM | – |

| Compound | EC50 (CD80-CD28 interaction) | other results |
| --- | --- | --- |
| CN1C(C)(C)CC(NC(=O)c2ccc(-n3[nH]c(-c4ccoc4)cc3=O)cc2)CC1(C)C [Example 20] | 1 to 10 µM | – |
| O=C(NCCCCN1CCCC1)c1ccc(-n2[nH]c(-c3ccco3)cc2=O)cc1 [Example 21] | 1 to 10 µM | – |
| O=C(NCCCCN1CCCC1)c1ccc(-n2[nH]c(-c3ccoc3)cc2=O)cc1 [Example 22] | 1 to 10 µM | – |
| CN1C(C)(C)CC(NC(=O)c2ccc(-n3[nH]c(-c4cccnc4)cc3=O)cc2)CC1(C)C [Example 23] | 1 to 10 µM | – |
| O=C(NCCCCN1CCCC1)c1ccc(-n2[nH]c(-c3ccccn3)cc2=O)cc1 [Example 24] | < 1 µM | – |
| O=C(NCCCCN1CCCC1)c1ccc(-n2[nH]c(-c3cccnc3)cc2=O)cc1 [Example 25] | 1 to 10 µM | – |
| CN(C)CCCNC(=O)c1ccc(-n2[nH]c(-c3cccc(F)c3)cc2=O)cc1 [Example 26] | < 1 µM | inhibition at 30 µM [2]: 52% |
| O=C(NCCCNC1CCCCC1)c1ccc(-n2[nH]c(-c3cccc(F)c3)cc2=O)cc1 [Example 27] | 1 to 10 µM | – |
| CN1C(C)(C)CC(NC(=O)c2ccc(-n3[nH]c(-c4cccc(F)c4)cc3=O)cc2)CC1(C)C [Example 28] | < 1 µM | – |
| O=C(NCCCCN1CCCC1)c1ccc(-n2[nH]c(-c3cnccn3)cc2=O)cc1 [Example 29] | 1 to 10 µM | – |
| CN(C)CCCNC(=O)c1ccc(-n2[nH]c(-c3cnccn3)cc2=O)cc1 [Example 30] | < 1 µM | – |
| O=C(NCCCCN1CCCC1)c1ccc(-n2[nH]c(-c3cc4ccccc4o3)cc2=O)cc1 [Example 31] | 1 to 10 µM | – |
| CN(C)CCCNC(=O)c1ccc(-n2[nH]c(-c3cc4ccccc4o3)cc2=O)cc1 [Example 32] | 1 to 10 µM | – |
| O=C(NCCCNC1CCCCC1)c1ccc(-n2[nH]c(-c3cc4ccccc4o3)cc2=O)cc1 [Example 33] | 1 to 10 µM | – |
| CN1C(C)(C)CC(NC(=O)c2ccc(-n3[nH]c(-c4cc5ccccc5o4)cc3=O)cc2)CC1(C)C [Example 34] | 1 to 10 µM | – |
| CD28: the endogenous protein ligand of CD80 | – | off-rate of CD80-CD28 interaction [3]: greater than 0.2 s^−1; Kd ([3]; read-out: KD of CD80-CD28 interaction): 4.75 µM |
